# Source: patent US5968933A, “DNA-targeted alkylating agents” (Auckland Division Cancer Society of New Zealand Inc., priority 1994, dated 1999)
# Like-named read-outs stand apart in the source and are kept apart here.
# Experiments:
# [1] = test system: P388 cells; test: Growth inhibition in vitro, P388 leukaemia; format: cell-based, murine
# Experimental: (§1) Representative examples of compounds of the invention were tested for biological activity against tumors. Compounds 1 to 6 and 14 to 21, prepared as described above, were tested for their ability to inhibit growth in vitro of cells of the wild-type murine leukaemia cell line P388, and the cell line AA8 which is derived from Chinese hamster ovary cells. For each compound, the IC50, ie. the concentration of compound which inhibited cell growth in treated cultures to 50% of that of controls, was determined, using means of three determinations. In addition, a hypersensitivity factor was determined by comparing activity of the compounds against AA8 cells to activity against UV4. The latter cell line is deficient in aspects of the excision repair pathway for removing DNA adducts, and is hypersensitive to DNA-alkylating agents, especially interstrand crosslinking agents. Previous work has shown that the ratio of IC50 s determined in the wild-type AA8 and mutant UV4 lines (the hypersensitivity factor HF) is a determinant of the mode of cell killing by alkylating agents (Palmer, B. D. et al, J. Med. Chem., 1990 33 112-121; Wilson, W. R. et al, J. Med. Chem., 1989 32 31-38). Compounds with HFs of ca. 1 are unlikely to kill cells via DNA alkylation events. Compounds which show high HF values are likely to form bulky adducts or cross-links,with the latter being especially likely for compounds showing the highest HF values (>ca. 25) (Wilson et al, op. cit.).
# (§2) Cell lines were maintained in exponential growth phase by subculturing in RPMI 1640 (P338) or Alpha MEM (AA8, UV4) containing 10% fetal calf serum, as previously described (Palmer et al, op.cit.; Baguley, B. C. and Wilson, W. R., Eur. J. Cancer Clin. Oncol., 1987 23 607-613). IC50 values were determined using log-phase cultures in 96-well microculture plates, and were calculated as the nominal drug concentration required to reduce the cell density to 50% of control values, using 8 control cultures on each microplate. For P388 cultures, drug was present throughout the growth period (72 h), and final cell densities were determined using a minor modification of the MTT method of Mossman (Mossman, T., J. Immunol. Methods, 1983 65 55-63). For AA8 and UV4 cultures, drug exposure was terminated after 18 h by washing three times with fresh medium. Cultures were then grown for a further 72 h before determining cell density by staining with methylene blue (Finlay, G. J. et al, Anal. Biochem., 1984 139 272-277).
# [2] = test system: calf thymus DNA; test: Reversible DNA binding by spectrophotometric Scatchard analysis; conditions: 20° C., 0.01M HEPES buffer, pH 7.00
# [3] = test system: AA8 and UV4 cells; test: Hypersensitivity factor (AA8/UV4 IC50 ratio); format: cell-based, Chinese hamster; conditions: ratio of IC50s AA8/UV4
# Experimental: as §1, §2
# [4] = test system: P338 murine leukaemia; format: in vivo, mice; conditions: for Optimal dose: single i.p. dose; for % Increase in lifespan: single i.p. dose 24 h after tumour inoculation, at optimal dose (mg/kg: 1 30; 2 30; 3 13.3; 4 3.9; 5 5.9; 6 8.9)
# [5] = test system: AA8 cells; test: Growth inhibition in vitro, AA8; format: cell-based, Chinese hamster
# Experimental: as §1, §2
# [6] = test system: S. typhimurium TA98; test: Bacterial mutagenicity, plate incorporation assay, TA98; conditions: mean ± SD
# [7] = test system: linearized pSV2gpt DNA; test: DNA crosslinking assay (agarose gel electrophoresis of linearized plasmid); format: biochemical; conditions: 2 h at 30° C., TE-80 buffer pH 8
# Experimental: The ability of representative compounds of the invention to bind to and cross-link DNA was examined. This was carried out by agarose gel electrophoresis of plasmid DNA using linearized pSV2gpt DNA (Tindall, K. R. and Stankowski, L. F.; Mutation Research, 1989 220 241-245) and the method reported by Valu et al, 1990, op.cit. Briefly, linearized pSV2gpt DNA (1 μL of a 1 mg/mL solution) was incubated with drug in TE-80 buffer (10 mM Tris.HCl, 1 mM EDTA at pH 8), shielded from ambient light, for 2 h at 30° C., then denatured by the addition of […] of 1% sodium dodecyl sulfate and 10 μL of 50 mM methylmercury hydroxide and incubated for a further 30 min at 20° C. in the dark. Renaturation of drug-treated DNA samples was carried out by incubation with 2.5 μL of 2-mercaptoethanol for 1 h. Samples were prepared for electrophoresis by the addition of 0.1 mg/mL bromophenol blue, 0.5 μg/mL ethidium bromide and 5 μL of 40% sucrose. Electrophoresis was carried out at 120V in 89 mM tris/borate buffer at pH 8 containing 2 mM EDTA and 0.5 μg/mL ethidium bromide. DNA was visualized using 302 nm trans-illumination, and was photographed using Polaroid type 55 film and a Wratten 3A filter.
# After drug treatment, DNA is denatured to the single stranded form, which runs as a lower band in the gels (see lanes 1 and 2 in FIG. 1). Cross-linking by the drugs is evidenced by the appearance of increasing amounts of renatured, double stranded DNA, as shown by the upper band in the gels, corresponding to the band for untreated DNA seen in lane 1.
# [8] = test system: calf thymus DNA; test: Rate of alkylation of calf thymus DNA by increase in DNA-bound fluorescence; format: biochemical; design: unit not given here
# [9] = test system: S. typhimurium TA100; test: Bacterial mutagenicity, plate incorporation assay, TA100; conditions: mean ± SD
# [10] = test system: S. typhimurium TA102; test: Bacterial mutagenicity, plate incorporation assay, TA102; conditions: mean ± SD
# [11] = 80 μg/plate, square brackets: toxicity becoming apparent
# [12] = 120 μg/plate, square brackets: toxicity becoming apparent
# [13] = 40 μg/plate, square brackets: toxicity becoming apparent
# [14] = P388 cells, 72 h, MTT, read-out: IC50
smiles,measurement,setting,value
"CCN(CCCl)c1cccc(CCCc2nc3ccc(-c4nc5ccc(N6CCN(C)CC6)cc5[nH]4)cc3[nH]2)c1 [Compound 19, 2-[2-[3-[3-(N-ethyl-N-(2-chloroethyl)amino)phenyl]propyl]-5-benzimidazolyl]-5-(1-methyl-4-piperazinyl)-benzimidazole]",IC50,"[1]; Mus musculus, P388, 72 h",< 60 nM
"CN1CCN(c2ccc3nc(-c4ccc5nc(Cc6ccc(N(CCCl)CCCl)cc6)[nH]c5c4)[nH]c3c2)CC1 [Compound 3, 2-[2-[[4-(N,N-bis(2-chloroethyl)amino)phenyl]methyl]-5-benzimidazolyl]-5-(1-methyl-4-piperazinyl)benzimidazole]",Site size (Number of nucleotide residues),[2],3.0 nucleotide residues
same,Hypersensitivity factor,[3],59
same,in vivo antitumour activity,"[4]; P388, single-dose protocol",retained significant in vivo activity
same,Optimal dose,[4],13.3 mg/kg
same,% Increase in lifespan,[4],71%
same,IC50,"[5]; AA8 cells, 18 h exposure, then 72 h growth, methylene blue, read-out: IC50",1500 nM
same,"reversion colonies, TA98",[6]; 4 μg/plate,71 ± 2
same,"reversion colonies, TA98",[6]; 10 μg/plate,83 ± 1
same,"reversion colonies, TA98",[6]; 20 μg/plate,87 ± 6
same,"reversion colonies, TA98",[6]; 40 μg/plate,86 ± 5
same,"reversion colonies, TA98",[6]; [11],77 ± 10
same,"reversion colonies, TA98",[6]; [12],86 ± 8
same,Cross-linking,[7],No
same,Rate constant for alkylation,[8],3.01 × 10^4
same,"reversion colonies, TA100",[9]; 4 μg/plate,154 ± 8
same,"reversion colonies, TA100",[9]; 10 μg/plate,130 ± 10
same,"reversion colonies, TA100",[9]; 20 μg/plate,137 ± 43
same,"reversion colonies, TA100",[9]; 40 μg/plate,167 ± 24
same,"reversion colonies, TA100",[9]; 80 μg/plate,167 ± 8
same,"reversion colonies, TA100",[9]; [12],157 ± 12
same,"reversion colonies, TA102",[10]; 4 μg/plate,297 ± 38
same,"reversion colonies, TA102",[10]; 10 μg/plate,237 ± 64
same,"reversion colonies, TA102",[10]; 20 μg/plate,304 ± 16
same,"reversion colonies, TA102",[10]; [13],268 ± 59
same,"reversion colonies, TA102",[10]; [12],505 ± 121
same,IC50,[1]; [14],850 nM
"CCN(CCCl)c1ccccc1CCCc1nc2ccc(-c3nc4ccc(N5CCN(C)CC5)cc4[nH]3)cc2[nH]1 [Compound 21, 2-[2-[3-[2-(N-ethyl-N-(2chloroethyl)amino)phenyl]propyl]-5-benzimidazolyl]-5-(1-methyl-4-piperazinyl)-benzimidazole]",IC50,"[1]; Mus musculus, P388, 72 h",< 60 nM
CN1CCN(c2ccc3nc(-c4ccc5nc(CCCc6ccccc6N(CCCl)CCCl)[nH]c5c4)[nH]c3c2)CC1 [Compound 20],IC50,[1]; [14],610 nM
"CN1CCN(c2ccc3nc(-c4ccc5nc(-c6ccc(N(C)CCCl)cc6)[nH]c5c4)[nH]c3c2)CC1 [Compound 1, 2-[2-[4-(N-methyl-N-(2-chloroethyl)amino)phenyl]-5-benzimidazolyl]-5-(1-methyl-4-piperazinyl)benzimidazole]",Hypersensitivity factor,[3],14
same,Optimal dose,[4],30 mg/kg
same,% Increase in lifespan,[4],86%
same,IC50,"[5]; Cricetulus griseus, CHO-AA8",5750 nM
same,"reversion colonies, TA98",[6]; 4 μg/plate,70 ± 3
same,"reversion colonies, TA98",[6]; 10 μg/plate,62 ± 7
same,"reversion colonies, TA98",[6]; 20 μg/plate,67 ± 9
same,"reversion colonies, TA98",[6]; 40 μg/plate,52 ± 7
same,"reversion colonies, TA98",[6]; [11],65 ± 3
same,"reversion colonies, TA100",[9]; 4 μg/plate,196 ± 23
same,"reversion colonies, TA100",[9]; 10 μg/plate,162 ± 21
same,"reversion colonies, TA100",[9]; 20 μg/plate,172 ± 13
same,"reversion colonies, TA100",[9]; 40 μg/plate,226 ± 23
same,"reversion colonies, TA100",[9]; 80 μg/plate,207 ± 12
same,"reversion colonies, TA102",[10]; 4 μg/plate,406 ± 20
same,"reversion colonies, TA102",[10]; 10 μg/plate,417 ± 26
same,"reversion colonies, TA102",[10]; 20 μg/plate,442 ± 62
same,"reversion colonies, TA102",[10]; [13],442 ± 43
same,IC50,"[1]; Mus musculus, P388, 72 h",500 nM
"CCN(CCCl)c1ccc(CCc2nc3ccc(-c4nc5ccc(N6CCN(C)CC6)cc5[nH]4)cc3[nH]2)cc1 [Compound 15, 2-[2-[2-[4-(N-Ethyl-N-(2-chloroethyl)amino)phenyl]ethyl]-5-benzimidazoyl]-5-(1-methyl-4-piperazinyl)benzimidazole]",IC50,"[1]; Mus musculus, P388, 72 h",120 nM
CCN(CCCl)c1ccc(CCCc2nc3ccc(-c4nc5ccc(N6CCN(C)CC6)cc5[nH]4)cc3[nH]2)cc1 [Compound 14],IC50,"[1]; Mus musculus, P388, 72 h",740 nM
CN1CCN(c2ccc3nc(-c4ccc5nc(CCCc6cccc(N(CCCl)CCCl)c6)[nH]c5c4)[nH]c3c2)CC1 [Compound 18],IC50,[1]; [14],> 1000 nM
"CCN(CCCl)c1ccc(CCCCCCc2nc3ccc(-c4nc5ccc(N6CCN(C)CC6)cc5[nH]4)cc3[nH]2)cc1 [Compound 16, 2-[2-[6-[4-(N-ethyl-N-(2-chloroethyl)amino)phenyl]hexyl]-5-benzimidazolyl]-5-(1-methyl-4-piperazinyl)benzimidazole]",IC50,"[1]; Mus musculus, P388, 72 h",370 nM
"CCN(CCCl)c1ccc(Cc2nc3ccc(-c4nc5ccc(N6CCN(C)CC6)cc5[nH]4)cc3[nH]2)cc1 [Compound 17, 2-[2-[[4-(N-ethyl-N-(2-chloroethyl)amino)phenyl]methyl]-5-benzimidazoyl]-5-(1-methyl-4-piperazinyl)benzimidazole]",IC50,"[1]; Mus musculus, P388, 72 h",90 nM
